Data reported in patent US20220363870A1, “Stain Resistant Additive” (Arxada AG, priority 2019, published 2022).
Where “and” joins values, the source holds several entries; their conditions need not be identical. Equal values may be shown once.

Tested on: 4 algal species
Experiment: Resistance of Paint Films to Algal Defacement (Modified ASTM Method D5589)
Assay type: cell-based
Design: key to 4 wk Rating / 10 wk Rating / 14 wk Rating: 0 showing no growth; 4 showing the highest growth
Settings: for Average 4 week rating: paint of Example 1, scale 0-4
Method: Procedure (Modified ASTM Method D5589): • 1. Sample substrates are coated with the corresponding paint samples containing the targeted amount of additive and antimicrobial. • 2. Depending upon the test conditions, samples are subjected to UV, leaching conditions, standard conditions, or a combination thereof. Leaching was performed for up to 7 days and with or without up to 600 hr of QUV in a weathering chamber. • 3. 4 algal species are used and inoculated every 2 weeks, including up to 18 weeks. Fresh plates were replaced at weeks 4, 10, 14, and 18. • 4. Ratings are scored on a range of 0-4, with 0 showing no growth and 4 showing the highest growth.

How did the “Average 4 week rating” value (Biocide 350 ppm + Additive 1,000 ppm) turn out when CCCCCCCCn1sccc1=O [N-octylisothiazolinone] was run?
The value was 3.7.

And the “Average 4 week rating” value (Biocide 350 ppm + Additive 3,000 ppm)?
The value was 1.7.

And the “Average 4 week rating” value (Biocide 350 ppm, no additive)?
The value was 2.7.

What about the “Average 4 week rating” value (Biocide 700 ppm + Additive 1,000 ppm) of the same compound?
Its value is 0.7.

And the “Average 4 week rating” value (Biocide 700 ppm + Additive 3,000 ppm)?
The value was 0.0.

And the “Average 4 week rating” value (Biocide 700 ppm, no additive)?
The value was 1.0.

What about the “Average 4 week rating” value (Biocide 1,050 ppm + Additive 1,000 ppm) of the same compound?
The value was 0.0.

And the “Average 4 week rating” value (Biocide 1,050 ppm + Additive 3,000 ppm)?
Its value is 0.0.

What about the “Average 4 week rating” value (Biocide 1,050 ppm, no additive) of the same compound?
The value was 1.3.

For Zinc pyrithione, which “4 wk Rating” value (Conc. 0.7% in paint of Example 1, algal growth rating 0-4, 4 wk) is on record?
The value was 0.

And the “10 wk Rating” value (Conc. 0.7% in paint of Example 1, algal growth rating 0-4, 10 wk)?
The value was 0.

And the “14 wk Rating” value (Conc. 0.7% in paint of Example 1, algal growth rating 0-4, 14 wk)?
The value was 0.

And the “4 wk ZOI” value (Conc. 0.7% in paint of Example 1, zone of inhibition, 4 wk)?
The value was 15.

What about the “18 wk ZOI” value (Conc. 0.7% in paint of Example 1, zone of inhibition, 18 wk) of the same compound?
Its value is 0.

Which “Average 4 week rating” value (Additive 1,000 ppm, no biocide) does the source give for “zinc di(ethyl 4,4,4-trifluoroacetoacetate) dihydrate [Additive]” here?
The value was 3.7.

What about the “Average 4 week rating” value (Additive 3,000 ppm, no biocide) of the same compound?
Its value is 2.0.

And the “18 wk Rating” value (Conc. 0.3% in paint of Example 1, algal growth rating 0-4, 18 wk, dihydrate)?
The value was 3 and 2.

And the “4 wk ZOI” value (Conc. 0.3% in paint of Example 1, zone of inhibition, 4 wk)?
Its value is 0.

What about the “10 wk ZOI” value (Conc. 0.3% in paint of Example 1, zone of inhibition, 10 wk) of the same compound?
The value was 0.

What about the “14 wk ZOI” value (Conc. 0.3% in paint of Example 1, zone of inhibition, 14 wk) of the same compound?
Its value is 0.

And the “18 wk ZOI” value (Conc. 0.3% in paint of Example 1, zone of inhibition, 18 wk)?
Its value is 0.
